From US10259810B2, “N-sulfonylated pyrazolo[3,4-b]pyridin-6-carboxamides and method of use” (AbbVie S.à.r.l., priority 2015, dated 2019)

What was measured:
ΔF508-CFTR = molecular target: T1, ΔF508-CFTR (Homo sapiens, UniProt P13569, DEL508-508); assay: CFTR cell surface levels using HRP-tagged ΔF508-CFTR expressing CFBE cells, in the presence of a co-corrector; type: cell-based; details: HRP-tagged ΔF508-CFTR CFBE cells, in the presence of 3 μM co-corrector; for EC50: read-out: EC50
T1 construct: host or cells: CFBE41o-, doxycycline-inducible
T1 sequence (P13569 with tags, fused parts or gaps DEL508-508): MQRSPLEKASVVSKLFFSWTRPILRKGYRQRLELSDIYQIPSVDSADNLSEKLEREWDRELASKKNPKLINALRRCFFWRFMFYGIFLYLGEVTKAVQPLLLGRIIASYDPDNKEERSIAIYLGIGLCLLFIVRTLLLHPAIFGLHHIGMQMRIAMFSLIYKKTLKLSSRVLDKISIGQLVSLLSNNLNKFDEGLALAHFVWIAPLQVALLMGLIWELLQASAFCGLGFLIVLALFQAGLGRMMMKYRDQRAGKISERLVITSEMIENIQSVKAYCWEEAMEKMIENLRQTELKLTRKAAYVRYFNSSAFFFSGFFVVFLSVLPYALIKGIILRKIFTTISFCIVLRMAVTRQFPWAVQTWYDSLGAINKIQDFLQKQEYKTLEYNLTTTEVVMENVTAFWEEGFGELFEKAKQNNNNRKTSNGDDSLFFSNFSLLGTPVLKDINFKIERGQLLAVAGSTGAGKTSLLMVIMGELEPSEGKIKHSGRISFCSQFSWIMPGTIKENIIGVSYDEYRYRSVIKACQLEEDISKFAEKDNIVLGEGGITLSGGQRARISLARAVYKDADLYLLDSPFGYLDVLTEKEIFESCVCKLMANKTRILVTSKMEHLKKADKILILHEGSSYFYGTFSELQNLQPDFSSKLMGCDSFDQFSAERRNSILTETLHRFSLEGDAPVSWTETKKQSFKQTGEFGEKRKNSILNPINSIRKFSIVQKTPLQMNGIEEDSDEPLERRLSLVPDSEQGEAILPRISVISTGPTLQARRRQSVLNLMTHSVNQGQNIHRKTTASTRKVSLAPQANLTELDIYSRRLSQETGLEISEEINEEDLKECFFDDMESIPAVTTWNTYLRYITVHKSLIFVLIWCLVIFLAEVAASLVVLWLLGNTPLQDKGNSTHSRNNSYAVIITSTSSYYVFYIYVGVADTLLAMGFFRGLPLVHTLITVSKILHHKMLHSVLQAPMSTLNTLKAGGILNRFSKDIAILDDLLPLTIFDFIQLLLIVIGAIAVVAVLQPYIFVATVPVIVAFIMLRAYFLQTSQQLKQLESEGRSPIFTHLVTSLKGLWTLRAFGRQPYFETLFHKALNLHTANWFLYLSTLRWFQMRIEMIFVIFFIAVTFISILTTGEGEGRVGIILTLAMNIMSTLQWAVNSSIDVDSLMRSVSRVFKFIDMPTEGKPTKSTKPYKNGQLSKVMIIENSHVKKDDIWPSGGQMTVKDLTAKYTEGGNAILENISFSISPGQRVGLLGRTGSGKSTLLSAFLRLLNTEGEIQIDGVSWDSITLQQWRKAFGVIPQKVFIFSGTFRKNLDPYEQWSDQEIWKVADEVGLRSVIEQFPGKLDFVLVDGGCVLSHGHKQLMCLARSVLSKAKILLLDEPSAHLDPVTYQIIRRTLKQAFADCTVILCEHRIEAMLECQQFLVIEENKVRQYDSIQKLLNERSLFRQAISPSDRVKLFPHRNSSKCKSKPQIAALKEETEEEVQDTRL
Procedure, shortened: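 Chemiluminescent read-out of surface HRP (15 min, dark) after PBS washes. Activity is normalized as 100×(sample−DMSO)/(3 μM co-corrector alone−DMSO).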

CFTR ΔF508 = molecular target: T2, CFTR ΔF508 (Homo sapiens, UniProt P13569, DEL508-508); assay: Acute TECC assay, primary bronchial epithelial cells of CF patients homozygous for CFTR ΔF508, with and without co-corrector; type: cell-based; details: 24 h, Ieq based on maximum current, normalized to DMSO and positive control; for % Activity at 3 μM (Ieq*): 3 μM compound
T2 construct: bronchial epithelial cells isolated from CF patients homozygous for the CFTR ΔF508 mutation; McGill University; Asterand; University of North Carolina hAEC-CF; host or cells: primary human bronchial epithelial cells from CF patients homozygous for ΔF508, differentiated at air-liquid interface
T2 sequence (P13569 with tags, fused parts or gaps DEL508-508): as above
Method: Primary Bronchial Epithelial Cells Protocol
The TECC (Tranepithelial Clamp Circuit, EP-design) assay measures the functionality of the cystic fibrosis Transmembrane Conductance regulator (CFTR) by measuring the short circuit current (Isc) generated over the basolateral and apical membrane of lung epithelial cells. In TECC the transepithelial potential PD and transepithelial resistance (Rt) are measured in an open circuit and transformed to Ieq using Ohm's law. 24 Wells can be measured simultaneously allowing a higher throughput compared to Ussing chambers.
For this purpose, bronchial epithelial cells isolated from CF patients homozygous for the CFTR ΔF508 mutation (hAEC-CF, Epithelix, Geneva, Switzerland; McGill University, Montreal, Qc; Asterand, Detroit, Mich.; University of North Carolina, Chapel Hill, N.C.) are plated on type IV collagen-coated Transwell® supports (Costar). Human airway epithelia are generated by provision of an air-liquid interface for 21 days to form well-differentiated polarized cultures that resemble in vivo pseudo-stratified ciliated epithelium (Fulcher, M. L., Gabriel, S., Burns, K. A., Yankaskas, J. R., Randell, S. H., 2005. Well-differentiated human airway epithelial cell cultures. Methods Mol. Med. 107, 183-206). The differentiated cells are treated with test corrector compound(s) (corrector alone or in combination with co-corrector, 4-[(2R,4R)-4-({[1-(2,2-difluoro-1,3-benzodioxol-5-yl)cyclopropyl]carbonyl}amino)-7-methoxy-3,4-dihydro-2H-chromen-2-yl]benzoic acid (“acute”) or test corrector compounds, co-corrector and potentiator, N-(3-carbamoyl-5,5,7,7-tetramethyl-4,7-dihydro-5H-thieno[2,3-c]pyran-2-yl)-1H-pyrazole-5-carboxamide (“chronic”) for 24 hours basolaterally to allow sufficient expression of properly folded CFTR protein on the membrane. All compound plates contained negative controls (DMSO) and positive controls (0.15 μM, 4-[(2R,4R)-4-({[1-(2,2-difluoro-1,3-benzodioxol-5-yl)cyclopropyl]carbonyl}amino)-7-(difluoromethoxy)-3,4-dihydro-2H-chromen-2-yl]benzoic acid).
For electrophysiological recording of the “acute” experiments, the human airway epithelia are mounted in the TECC heating plate and kept at 37° C. The epithelia are bathed in a NaCl-Ringer solution (120 mM NaCl, 25 mM NaHCO3, 1.2 mM CaCl2, 1.2 mM MgCl2, 0.8 mM KH2PO4, 0.8 mM K2HPO4, pH 7.4, 5 mM glucose) on both the basolateral and apical sides. Apical amiloride is used to inhibit the endogenous epithelial sodium channel (ENaC) currents while forskolin is applied on both apical and basolateral side to stimulate CFTR. CFTR activity is measured by addition of forskolin followed by addition of a potentiator, N-(3-carbamoyl-5,5,7,7-tetramethyl-4,7-dihydro-5H-thieno[2,3-c]pyran-2-yl)-1H-pyrazole-5-carboxamide, on both sides. The potentiator, 3-amino-N-[(2S)-2-hydroxypropyl]-5-{[4-(trifluoromethoxy)phenyl]sulfonyl}pyridine-2-carboxamide, was used in place of N-(3-carbamoyl-5,5,7,7-tetramethyl-4,7-dihydro-5H-thieno[2,3-c]pyran-2-yl)-1H-pyrazole-5-carboxamide in some assays. Measurements are done during a 20 minute timeframe with recordings every 2 minutes. […] Inhibitor-172, an inhibitor specific for CFTR, is used to test the specificity of the tested compounds. Raw data were normalized to percentage activity values using the equation: 100×(Sample−Negative control)/(Positive control−Negative Control).

Compound | % Activation (ΔF508-CFTR) | EC50 (ΔF508-CFTR) | % Activity at 3 μM (Ieq*) (CFTR ΔF508; without co-corrector) | % Activity at 3 μM with co-corrector (Ieq*) (CFTR ΔF508; 3 μM compound with co-corrector) | % Activity at 10 μM (Ieq*) (CFTR ΔF508; 10 μM compound, without co-corrector)
CC(C)c1nn(C2CCCCC2)c2nc(C(=O)NS(C)(=O)=O)cc(-c3cnc(N4CCOCC4)nc3)c12 [Compound 11, 1-cyclohexyl-N-(methanesulfonyl)-4-[2-(morpholin-4-yl)pyrimidin-5-yl]-3-(propan-2-yl)-1H-pyrazolo[3,4-b]pyridine-6-carboxamide] | 381.33% | 0.455 µM | 351% |  | 
CS(=O)(=O)NC(=O)c1cc(-c2ccc(N3CCC(C#N)CC3)nc2)c2c(C3CCC3)nn(C3CCCCC3)c2n1 [Compound 104, 4-[6-(4-cyanopiperidin-1-yl)pyridin-3-yl]-3-cyclobutyl-1-cyclohexyl-N-(methanesulfonyl)-1H-pyrazolo[3,4-b]pyridine-6-carboxamide] | 411.33% | 0.344 µM |  | 102.36% | 
CC(C)c1nn(-c2cccc(N3CCC3)c2)c2nc(C(=O)NS(C)(=O)=O)cc(-c3ccc(N4CCOCC4)cc3)c12 [Compound 10, 1-[3-(azetidin-1-yl)phenyl]-N-(methanesulfonyl)-4-[4-(morpholin-4-yl)phenyl]-3-(propan-2-yl)-1H-pyrazolo[3,4-b]pyridine-6-carboxamide] | 606.5% | 0.443 µM | 591.84% |  | 
Cc1nn(-c2ccccc2)c2nc(C(=O)NS(C)(=O)=O)cc(N3CCCCC3)c12 [Compound 13, N-(methanesulfonyl)-3-methyl-1-phenyl-4-(piperidin-1-yl)-1H-pyrazolo[3,4-b]pyridine-6-carboxamide] | 341.75% | 1.47 µM | 74.32% |  | 174.53%
